According to patent publication US20110118118A1, “HERBICIDALLY ACTIVE PHENYL-SUBSTITUTED PYRIDAZINONES” (BAYER CROPSCIENCE AG, priority 2009, published 2011):

Columns and labels:
Assay in all cases: Post-emergence herbicidal action against harmful plants
Assay type in all cases: in vivo
Conditions in all cases: application rate 320 g/ha, rated visually after about 3 weeks vs untreated controls
[1] = system: Abutilon theophrasti
Description: (§1) 2. Post-Emergence Herbicidal Action Against Harmful Plants Seeds of monocotyledonous and dicotyledonous weed and crop plants are placed in sandy loam in wood-fiber pots, covered with soil and cultivated in a greenhouse under good growth conditions. 2 to 3 weeks after sowing, the test plants are treated at the one-leaf stage. The compounds according to the invention, formulated in the form of wettable powders (WP) or as emulsion concentrates (EC), are then sprayed as aqueous suspension or emulsion at a water application rate of 600 to 800 l/ha (converted) with the addition of 0.2% of wetting agent onto the green parts of the plants. After the test plants have been kept in the greenhouse under optimum growth conditions for about 3 weeks, the activity of the preparations is rated visually in comparison to untreated controls (herbicidal activity in percent (%): 100% activity=the plants have died, 0% activity=like control plants). Here, for example, the compounds Nos. I-1-c-2 and I-1-c-3 (Table 33 in each case) each show, at an application rate of 320 g/ha, an activity of at least 90% against Alopecurus myosuroides, Amaranthus retroflexus, Matricaria inodora, Pharbitis purpureum and Viola tricolor.

[2] = system: Fallopia convolvulus
Description: as §1

[3] = system: Lolium multiflorum
Description: as §1

[4] = system: Veronica persica
Description: as §1

CCc1cc(Cl)cc(Br)c1-c1c(O)c(C)nn(C)c1=O [I-1-a-3]
100%: herbicidal activity in percent against Abutilon theophrasti [1] | herbicidal activity in percent against Fallopia convolvulus [2] | herbicidal activity in percent against Lolium multiflorum [3] | herbicidal activity in percent against Veronica persica [4]

CCc1cc(Cl)cc(Br)c1-c1c(OC(=O)C(C)C)c(C)nn(C)c1=O [I-1-b-2]
100%: herbicidal activity in percent against Abutilon theophrasti [1] | herbicidal activity in percent against Fallopia convolvulus [2] | herbicidal activity in percent against Lolium multiflorum [3] | herbicidal activity in percent against Veronica persica [4]
